# Test results published in PubChem BioAssay (NCI).
#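 Five concentrations, 48 hours, 96-well plates. The concentration for full growth arrest is given as TGI.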
# Experiments:
# Test in all cases: inhibition of tumour cell growth, NCI panel, 48 h
# 786-0 renal = system: 786-0 renal
# A498 renal = system: A498 renal
# A549 NSCLC = system: A549 NSCLC
# ACHN renal = system: ACHN renal
# BT-549 breast = system: BT-549 breast
# CAKI-1 renal = system: CAKI-1 renal
# CCRF-CEM leukemia = system: CCRF-CEM leukemia
# COLO 205 colon = system: COLO 205 colon
# DU-145 prostate = system: DU-145 prostate
# EKVX NSCLC = system: EKVX NSCLC
# HCC-2998 colon = system: HCC-2998 colon
# HCT-116 colon = system: HCT-116 colon
# HCT-15 colon = system: HCT-15 colon
# HOP-62 NSCLC = system: HOP-62 NSCLC
# HOP-92 NSCLC = system: HOP-92 NSCLC
# HS 578T breast = system: HS 578T breast
# HT29 colon = system: HT29 colon
# IGROV1 ovarian = system: IGROV1 ovarian
# K-562 leukemia = system: K-562 leukemia
# KM12 colon = system: KM12 colon
# LOX IMVI melanoma = system: LOX IMVI melanoma
# M14 melanoma = system: M14 melanoma
# MALME-3M melanoma = system: MALME-3M melanoma
# MCF7 breast = system: MCF7 breast
# MDA-MB-231 breast = system: MDA-MB-231 breast
# MDA-MB-435 = system: MDA-MB-435
# MDA-N = system: MDA-N
# MOLT-4 leukemia = system: MOLT-4 leukemia
# NCI-H226 lung = system: NCI-H226 lung
# NCI-H23 lung = system: NCI-H23 lung
# NCI-H460 lung = system: NCI-H460 lung
# NCI-H522 lung = system: NCI-H522 lung
# NCI/ADR-RES ovarian = system: NCI/ADR-RES ovarian
# OVCAR-3 ovarian = system: OVCAR-3 ovarian
# OVCAR-4 ovarian = system: OVCAR-4 ovarian
# OVCAR-5 ovarian = system: OVCAR-5 ovarian
# OVCAR-8 ovarian = system: OVCAR-8 ovarian
# PC-3 prostate = system: PC-3 prostate
# RPMI-8226 leukemia = system: RPMI-8226 leukemia
# RXF 393 renal = system: RXF 393 renal
# SF-268 CNS = system: SF-268 CNS
# SF-295 CNS = system: SF-295 CNS
# SF-539 CNS = system: SF-539 CNS
# SK-MEL-2 melanoma = system: SK-MEL-2 melanoma
# SK-MEL-28 melanoma = system: SK-MEL-28 melanoma
# SK-MEL-5 melanoma = system: SK-MEL-5 melanoma
# SK-OV-3 ovarian = system: SK-OV-3 ovarian
# SN12C renal = system: SN12C renal
# SNB-19 CNS = system: SNB-19 CNS
# SNB-75 CNS = system: SNB-75 CNS
# SR leukemia = system: SR leukemia
# SW-620 colon = system: SW-620 colon
# T-47D breast = system: T-47D breast
# TK-10 renal = system: TK-10 renal
# U251 CNS = system: U251 CNS
# UACC-257 melanoma = system: UACC-257 melanoma
# UACC-62 melanoma = system: UACC-62 melanoma
# UO-31 renal = system: UO-31 renal
# HL-60(TB) leukemia = system: HL-60(TB) leukemia
compound,measurement,setting,value
O=C1c2c(F)c(F)c(F)c(F)c2SC2=NCCN12,TGI,786-0 renal,19.8 µM
same,TGI,A498 renal,32.9 µM
same,TGI,A549 NSCLC,30.1 µM
same,TGI,ACHN renal,21.1 µM
same,TGI,BT-549 breast,28 µM
same,TGI,CAKI-1 renal,6.67 µM
same,TGI,CCRF-CEM leukemia,> 21.6 µM
same,TGI,COLO 205 colon,19 µM
same,TGI,DU-145 prostate,31 µM
same,TGI,EKVX NSCLC,41.4 µM
same,TGI,HCC-2998 colon,28 µM
same,TGI,HCT-116 colon,5.24 µM
same,TGI,HCT-15 colon,7.56 µM
same,TGI,HOP-62 NSCLC,32.6 µM
same,TGI,HOP-92 NSCLC,9.19 µM
same,TGI,HS 578T breast,46.4 µM
same,TGI,HT29 colon,8.12 µM
same,TGI,IGROV1 ovarian,17.7 µM
same,TGI,K-562 leukemia,> 22.5 µM
same,TGI,KM12 colon,25.6 µM
same,TGI,LOX IMVI melanoma,3.07 µM
same,TGI,M14 melanoma,14.1 µM
same,TGI,MALME-3M melanoma,12.8 µM
same,TGI,MCF7 breast,23.5 µM
same,TGI,MDA-MB-231 breast,22.2 µM
same,TGI,MDA-MB-435,8.59 µM
same,TGI,MDA-N,11.9 µM
same,TGI,MOLT-4 leukemia,6.7 µM
same,TGI,NCI-H226 lung,34.5 µM
same,TGI,NCI-H23 lung,10.4 µM
same,TGI,NCI-H460 lung,17.5 µM
same,TGI,NCI-H522 lung,10.1 µM
same,TGI,NCI/ADR-RES ovarian,31.3 µM
same,TGI,OVCAR-3 ovarian,9.21 µM
same,TGI,OVCAR-4 ovarian,8.91 µM
same,TGI,OVCAR-5 ovarian,29.2 µM
same,TGI,OVCAR-8 ovarian,24.5 µM
same,TGI,PC-3 prostate,27.2 µM
same,TGI,RPMI-8226 leukemia,24.8 µM
same,TGI,RXF 393 renal,8.89 µM
same,TGI,SF-268 CNS,28.2 µM
same,TGI,SF-295 CNS,32.4 µM
same,TGI,SF-539 CNS,30 µM
same,TGI,SK-MEL-2 melanoma,6.52 µM
same,TGI,SK-MEL-28 melanoma,22.8 µM
same,TGI,SK-MEL-5 melanoma,28.4 µM
same,TGI,SK-OV-3 ovarian,28.7 µM
same,TGI,SN12C renal,21.8 µM
same,TGI,SNB-19 CNS,29 µM
same,TGI,SNB-75 CNS,29.9 µM
same,TGI,SR leukemia,4.45 µM
same,TGI,SW-620 colon,6.29 µM
same,TGI,T-47D breast,29 µM
same,TGI,TK-10 renal,22.4 µM
same,TGI,U251 CNS,22.9 µM
same,TGI,UACC-257 melanoma,21.8 µM
same,TGI,UACC-62 melanoma,19.2 µM
same,TGI,UO-31 renal,22.5 µM
COc1cc(/C=C/C(=O)OCC23CC[C@@]4(C(=O)O)CCC(C)[C@H](C)C4C2=CCC2[C@@]4(C)CC[C@H](O)C(C)(C)C4CC[C@]23C)ccc1O (some centres undefined),TGI,786-0 renal,31.7 µM
same,TGI,A498 renal,68.5 µM
same,TGI,A549 NSCLC,22.6 µM
same,TGI,ACHN renal,8.24 µM
same,TGI,BT-549 breast,50.6 µM
same,TGI,CAKI-1 renal,> 100 µM
same,TGI,CCRF-CEM leukemia,22.3 µM
same,TGI,DU-145 prostate,23.2 µM
same,TGI,EKVX NSCLC,33.1 µM
same,TGI,HCC-2998 colon,> 100 µM
same,TGI,HCT-116 colon,46.4 µM
same,TGI,HCT-15 colon,56.3 µM
same,TGI,HL-60(TB) leukemia,51.1 µM
same,TGI,HOP-62 NSCLC,28.6 µM
same,TGI,HS 578T breast,17.1 µM
same,TGI,HT29 colon,42 µM
same,TGI,IGROV1 ovarian,57.2 µM
same,TGI,K-562 leukemia,> 100 µM
same,TGI,KM12 colon,> 100 µM
same,TGI,LOX IMVI melanoma,34.2 µM
same,TGI,M14 melanoma,49.5 µM
same,TGI,MALME-3M melanoma,27.5 µM
same,TGI,MCF7 breast,48.1 µM
same,TGI,MDA-MB-231 breast,> 100 µM
same,TGI,MDA-MB-435,57 µM
same,TGI,MDA-N,60.7 µM
same,TGI,MOLT-4 leukemia,76.2 µM
same,TGI,NCI-H226 lung,71.8 µM
same,TGI,NCI-H23 lung,15.6 µM
same,TGI,NCI-H460 lung,27.6 µM
same,TGI,NCI-H522 lung,31.2 µM
same,TGI,NCI/ADR-RES ovarian,44.9 µM
same,TGI,OVCAR-3 ovarian,14.3 µM
same,TGI,OVCAR-4 ovarian,46.9 µM
same,TGI,OVCAR-5 ovarian,46.4 µM
same,TGI,OVCAR-8 ovarian,35.7 µM
same,TGI,PC-3 prostate,41.5 µM
same,TGI,RXF 393 renal,47.4 µM
same,TGI,SF-268 CNS,33.3 µM
same,TGI,SF-295 CNS,73.9 µM
same,TGI,SF-539 CNS,31.4 µM
same,TGI,SK-MEL-2 melanoma,47.5 µM
same,TGI,SK-MEL-28 melanoma,85.9 µM
same,TGI,SK-MEL-5 melanoma,32.9 µM
same,TGI,SK-OV-3 ovarian,83.4 µM
same,TGI,SN12C renal,67.8 µM
same,TGI,SNB-19 CNS,> 100 µM
same,TGI,SR leukemia,61.3 µM
same,TGI,SW-620 colon,> 100 µM
same,TGI,T-47D breast,> 100 µM
same,TGI,TK-10 renal,8.9 µM
same,TGI,U251 CNS,76.1 µM
same,TGI,UACC-257 melanoma,39.4 µM
same,TGI,UACC-62 melanoma,41.9 µM
O=C(c1ccccc1)c1ccc2c(c1)nc1n2C(c2c(Cl)cccc2Cl)SC1 (centres undefined),TGI,786-0 renal,> 100 µM
same,TGI,A498 renal,> 100 µM
same,TGI,A549 NSCLC,> 100 µM
same,TGI,ACHN renal,> 100 µM
same,TGI,BT-549 breast,> 100 µM
same,TGI,CAKI-1 renal,> 100 µM
same,TGI,COLO 205 colon,> 100 µM
same,TGI,DU-145 prostate,> 100 µM
same,TGI,EKVX NSCLC,> 100 µM
same,TGI,HCC-2998 colon,> 100 µM
same,TGI,HCT-116 colon,> 100 µM
same,TGI,HCT-15 colon,> 100 µM
same,TGI,HL-60(TB) leukemia,> 100 µM
same,TGI,HOP-62 NSCLC,> 100 µM
same,TGI,HOP-92 NSCLC,> 100 µM
same,TGI,HS 578T breast,> 100 µM
same,TGI,HT29 colon,> 100 µM
same,TGI,IGROV1 ovarian,> 100 µM
same,TGI,KM12 colon,> 100 µM
same,TGI,LOX IMVI melanoma,> 100 µM
same,TGI,M14 melanoma,> 100 µM
same,TGI,MALME-3M melanoma,> 100 µM
same,TGI,MCF7 breast,> 100 µM
same,TGI,MDA-MB-231 breast,> 100 µM
same,TGI,MDA-MB-435,> 100 µM
same,TGI,MDA-N,> 100 µM
same,TGI,MOLT-4 leukemia,> 100 µM
same,TGI,NCI-H226 lung,> 100 µM
same,TGI,NCI-H23 lung,> 100 µM
same,TGI,NCI-H460 lung,> 100 µM
same,TGI,NCI-H522 lung,> 100 µM
same,TGI,NCI/ADR-RES ovarian,> 100 µM
same,TGI,OVCAR-3 ovarian,> 100 µM
same,TGI,OVCAR-4 ovarian,> 100 µM
same,TGI,OVCAR-5 ovarian,> 100 µM
same,TGI,OVCAR-8 ovarian,> 100 µM
same,TGI,PC-3 prostate,> 100 µM
same,TGI,RPMI-8226 leukemia,> 100 µM
same,TGI,RXF 393 renal,> 100 µM
same,TGI,SF-268 CNS,> 100 µM
same,TGI,SF-295 CNS,> 100 µM
same,TGI,SF-539 CNS,> 100 µM
same,TGI,SK-MEL-2 melanoma,> 100 µM
same,TGI,SK-MEL-28 melanoma,> 100 µM
same,TGI,SK-MEL-5 melanoma,> 100 µM
same,TGI,SK-OV-3 ovarian,> 100 µM
same,TGI,SN12C renal,> 100 µM
same,TGI,SNB-19 CNS,> 100 µM
same,TGI,SNB-75 CNS,> 100 µM
same,TGI,SR leukemia,> 100 µM
same,TGI,SW-620 colon,> 100 µM
same,TGI,T-47D breast,> 100 µM
same,TGI,TK-10 renal,> 100 µM
same,TGI,U251 CNS,> 100 µM
same,TGI,UACC-257 melanoma,> 100 µM
same,TGI,UACC-62 melanoma,> 100 µM
same,TGI,UO-31 renal,> 100 µM
